Experimental data taken from patent US9561228B2 (Celgene Avilomics Research, Inc., priority 2013, dated 2017).

Key:
[1] = system: HT-29 cells (colorectal adenocarcinoma); test: Inhibition of cancer cell proliferation, HT-29 (CellTiterGlo, 72 hours); type: cell-based; conditions: Homo sapiens
Procedure, shortened: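 Proliferation over 72 h at 37° C was read by CellTiterGlo luminescence, translated to cell counts with a cell-density standard curve (390–50,000 cells). Compound added as 3-fold dilutions from a 5,000 nM two-fold stock to 3000 seeded HT-29 cells; GI50 from percent inhibition relative to untreated wells.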

[2] = system: HCT116 cells (colorectal carcinoma); test: Inhibition of cancer cell proliferation, HCT116 (CellTiterGlo, 72 hours); type: cell-based; conditions: Homo sapiens, HCT-116
Procedure, shortened: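 3000 cells per well exposed to 3-fold serial compound dilutions from 5,000 nM (two-fold solution, stock level) for 72 hours at 37° C. CellTiterGlo luminescence converted to cell number via a standard curve; percent inhibition vs untreated wells, GI50 by curve fit.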

SMILES | GI50 [1] | GI50 [2]
C=CC(=O)Nc1cc(C)ccc1Nc1nc(Nc2cc(C(C)=O)ccc2C)ncc1C(F)(F)F [Compound I-84, N-(2-((2-((5-Acetyl-2-methylphenyl)amino)-5-(trifluoromethyl)pyrimidin-4-yl)amino)-5-methylphenyl)acrylamide] | 0.101 to 0.5 µM | 0.501 to 0.999 µM
C=CC(=O)Nc1ccccc1Nc1nc(Nc2cc(OC)ncc2C)ncc1C(F)(F)F [Compound I-85, N-(2-((2-((2-Methoxy-5-methylpyridin-4-yl)amino)-5-(trifluoromethyl)pyrimidin-4-yl)amino)phenyl)acrylamide] | < 0.1 µM | 0.101 to 0.5 µM
C=CC(=O)Nc1ccccc1Nc1nc(Nc2cc(OC)nc(N3CCN(C(C)=O)CC3)c2)ncc1C(F)(F)F [Compound I-92] | < 0.1 µM | < 0.1 µM
C=CC(=O)Nc1cc(C)ccc1Nc1nc(Nc2cc(OC)nc(N3CCN(C(C)=O)CC3)c2)ncc1C(F)(F)F [Compound I-93, N-(2-((2-((2-(4-Acetylpiperazin-1-yl)-6-methoxypyridin-4-yl)amino)-5-(trifluoromethyl)pyrimidin-4-yl)amino)-5-methylphenyl)acrylamide] | < 0.1 µM | < 0.1 µM
C=CC(=O)Nc1cc(C)ccc1Nc1nc(Nc2cc(OC)nc(OC)c2)ncc1C(F)(F)F [Compound I-96] | < 0.1 µM | < 0.1 µM
C=CC(=O)Nc1cc(C)ccc1Nc1nc(Nc2cc(NCCOC)nc(OC)c2)ncc1C(F)(F)F [Compound I-294, N-(2-((2-((2-methoxy-6-((2-methoxyethyl)amino)pyridin-4-yl)amino)-5-(trifluoromethyl)pyrimidin-4-yl)amino)-5-methylphenyl)acrylamide] | < 0.1 µM | < 0.1 µM
C=CC(=O)Nc1cc(C)ccc1Nc1nc(Nc2cc(N[C@H]3CC[C@](C)(O)CC3)nc(OC)c2)ncc1C(F)(F)F [Compound I-327, N-(2-((2-((2-((trans-4-hydroxy-4-methylcyclohexyl)amino)-6-methoxypyridin-4-yl)amino)-5-(trifluoromethyl)pyrimidin-4-yl)amino)-5-methylphenyl)acrylamide] |  | < 0.1 µM
C=CC(=O)Nc1cc(C)ccc1Nc1nc(Nc2nc(OC)ncc2Cl)ncc1C(F)(F)F [Compound I-344, N-(2-((2-((5-chloro-2-methoxypyrimidin-4-yl)amino)-5-(trifluoromethyl)pyrimidin-4-yl)amino)-5-methylphenyl)acrylamide] | 0.101 to 0.5 µM | 0.501 to 0.999 µM
C=CC(=O)Nc1cc(C)ccc1Nc1nc(Nc2nc(OC)ncc2C#N)ncc1C(F)(F)F [Compound I-346, N-(2-((2-((5-cyano-2-methoxypyrimidin-4-yl)amino)-5-(trifluoromethyl)pyrimidin-4-yl)amino)-5-methylphenyl)acrylamide] | 0.101 to 0.5 µM | 0.501 to 0.999 µM
C=CC(=O)Nc1cc(C)ccc1Nc1nc(Nc2nc(OC)ncc2C)ncc1C(F)(F)F [Compound I-347, N-(2-((2-((2-methoxy-5-methylpyrimidin-4-yl)amino)-5-(trifluoromethyl)pyrimidin-4-yl)amino)-5-methylphenyl)acrylamide] | 0.101 to 0.5 µM | 0.501 to 0.999 µM
C=CC(=O)Nc1cc(C)ccc1Nc1nc(Nc2nc(OC)ncc2OC)ncc1C(F)(F)F [Compound I-349, N-(2-((2-((2,5-dimethoxypyrimidin-4-yl)amino)-5-(trifluoromethyl)pyrimidin-4-yl)amino)-5-methylphenyl)acrylamide] | 0.101 to 0.5 µM | > 1 µM
C=CC(=O)Nc1cc(C)ccc1Nc1nc(Nc2ncc(C(F)(F)F)c(OC)n2)ncc1C(F)(F)F [Compound I-354, N-(2-((2-((4-methoxy-5-(trifluoromethyl)pyrimidin-2-yl)amino)-5-(trifluoromethyl)pyrimidin-4-yl)amino)-5-methylphenyl)acrylamide] | 0.101 to 0.5 µM | 0.501 to 0.999 µM
C=CC(=O)Nc1cc(C)ccc1Nc1nc(Nc2nc(OC)ncc2C(F)(F)F)ncc1C(F)(F)F [Compound I-355, N-(2-((2-((2-methoxy-5-(trifluoromethyl)pyrimidin-4-yl)amino)-5-(trifluoromethyl)pyrimidin-4-yl)amino)-5-methylphenyl)acrylamide] | 0.501 to 0.999 µM | > 1 µM
C=CC(=O)Nc1cc(C)ccc1Nc1nc(Nc2ncc(F)c(OC)n2)ncc1C(F)(F)F [Compound I-356, N-(2-((2-((5-fluoro-4-methoxypyrimidin-2-yl)amino)-5-(trifluoromethyl)pyrimidin-4-yl)amino)-5-methylphenyl)acrylamide] | 0.501 to 0.999 µM | > 1 µM
C=CC(=O)Nc1cc(C)ccc1Nc1nc(Nc2nc(OC)ncc2F)ncc1C(F)(F)F [Compound I-357, N-(2-((2-((5-fluoro-2-methoxypyrimidin-4-yl)amino)-5-(trifluoromethyl)pyrimidin-4-yl)amino)-5-methylphenyl)acrylamide] | < 0.1 µM | 0.501 to 0.999 µM
C=CC(=O)Nc1cc(C)ccc1Nc1nc(Nc2cc(OCCOC)ncc2C)ncc1C(F)(F)F [Compound I-359, N-(2-((2-((2-(2-methoxyethoxy)-5-methylpyridin-4-yl)amino)-5-(trifluoromethyl)pyrimidin-4-yl)amino)-5-methylphenyl)acrylamide] | 0.501 to 0.999 µM | > 1 µM
C=CC(=O)Nc1cc(C)ccc1Nc1nc(Nc2nc(OC)ccc2Cl)ncc1C(F)(F)F [Compound I-360, N-(2-((2-((3-chloro-6-methoxypyridin-2-yl)amino)-5-(trifluoromethyl)pyrimidin-4-yl)amino)-5-methylphenyl)acrylamide] | > 1 µM | > 1 µM
C=CC(=O)Nc1cc(C)ccc1Nc1nc(Nc2cc(OC)cnc2Cl)ncc1C(F)(F)F [Compound I-361, N-(2-((2-((2-chloro-5-methoxypyridin-3-yl)amino)-5-(trifluoromethyl)pyrimidin-4-yl)amino)-5-methylphenyl)acrylamide] | 0.101 to 0.5 µM | 0.501 to 0.999 µM
C=CC(=O)Nc1cc(C)ccc1Nc1nc(Nc2nc(O)ncc2C)ncc1C(F)(F)F [Compound I-364, N-(2-((2-((2-hydroxy-5-methylpyrimidin-4-yl)amino)-5-(trifluoromethyl)pyrimidin-4-yl)amino)-5-methylphenyl)acrylamide] | 0.101 to 0.5 µM | 0.101 to 0.5 µM
C=CC(=O)Nc1cc(C)c(F)cc1Nc1nc(Nc2nc(OC)ncc2Cl)ncc1C(F)(F)F [Compound I-374, N-(2-((2-((5-chloro-2-methoxypyrimidin-4-yl)amino)-5-(trifluoromethyl)pyrimidin-4-yl)amino)-4-fluoro-5-methylphenyl)acrylamide] | 0.101 to 0.5 µM | 0.101 to 0.5 µM
C=CC(=O)Nc1cc(C)ccc1Nc1nc(Nc2cc(OCCO)ncc2C)ncc1C(F)(F)F [Compound I-376, N-(2-((2-((2-(2-hydroxyethoxy)-5-methylpyridin-4-yl)amino)-5-(trifluoromethyl)pyrimidin-4-yl)amino)-5-methylphenyl)acrylamide] | 0.101 to 0.5 µM | 0.501 to 0.999 µM
C=CC(=O)Nc1cc(C)c(F)cc1Nc1nc(Nc2nc(OC)ncc2C)ncc1C(F)(F)F [Compound I-377, N-(4-fluoro-2-((2-((2-methoxy-5-methylpyrimidin-4-yl)amino)-5-(trifluoromethyl)pyrimidin-4-yl)amino)-5-methylphenyl)acrylamide] | < 0.1 µM | > 1 µM
C=CC(=O)Nc1cc(C)ccc1Nc1nc(Nc2ccnc3ccccc23)ncc1C(F)(F)F [Compound I-379, N-(5-methyl-2-((2-(quinolin-4-ylamino)-5-(trifluoromethyl)pyrimidin-4-yl)amino)phenyl)acrylamide] | 0.101 to 0.5 µM | 0.101 to 0.5 µM
C=CC(=O)Nc1cc(CN2CCN(C(C)=O)CC2)ccc1Nc1nc(Nc2cc(OC)ncc2C)ncc1C(F)(F)F [Compound I-381, N-(5-((4-acetylpiperazin-1-yl)methyl)-2-((2-((2-methoxy-5-methylpyridin-4-yl)amino)-5-(trifluoromethyl)pyrimidin-4-yl)amino)phenyl)acrylamide] | 0.101 to 0.5 µM | 0.101 to 0.5 µM
C=CC(=O)Nc1cc(CN2CCN(S(C)(=O)=O)CC2)ccc1Nc1nc(Nc2cc(OC)ncc2C)ncc1C(F)(F)F [Compound I-384, N-(2-((2-((2-methoxy-5-methylpyridin-4-yl)amino)-5-(trifluoromethyl)pyrimidin-4-yl)amino)-5-((4-(methylsulfonyl)piperazin-1-yl)methyl)phenyl)acrylamide] | < 0.1 µM | 0.101 to 0.5 µM
C=CC(=O)Nc1cc(CN2CCN(C(=O)c3cccnc3)CC2)ccc1Nc1nc(Nc2cc(OC)ncc2C)ncc1C(F)(F)F [Compound I-389, N-(2-((2-((2-methoxy-5-methylpyridin-4-yl)amino)-5-(trifluoromethyl)pyrimidin-4-yl)amino)-5-((4-nicotinoylpiperazin-1-yl)methyl)phenyl)acrylamide] | < 0.1 µM | 0.101 to 0.5 µM
C=CC(=O)Nc1cc(CN2CCN(C(=O)c3cnccn3)CC2)ccc1Nc1nc(Nc2cc(OC)ncc2C)ncc1C(F)(F)F [Compound I-390, N-(2-((2-((2-methoxy-5-methylpyridin-4-yl)amino)-5-(trifluoromethyl)pyrimidin-4-yl)amino)-5-((4-(pyrazine-2-carbonyl)piperazin-1-yl)methyl)phenyl)acrylamide] | < 0.1 µM | 0.101 to 0.5 µM
C=CC(=O)Nc1cc(OCC(N)=O)ccc1Nc1nc(Nc2cc(OC)ncc2C)ncc1C(F)(F)F [Compound I-398, N-(5-(2-amino-2-oxoethoxy)-2-((2-((2-methoxy-5-methylpyridin-4-yl)amino)-5-(trifluoromethyl)pyrimidin-4-yl)amino)phenyl)acrylamide] | < 0.1 µM | 0.101 to 0.5 µM
